Holding throughout (assay type): in vivo, Sprague Dawley rats
The nature of data set [1]: Overall body weight of treated animals. As to conditions: lower doses of daunorubicin (2 mg/kg and 5 mg/kg i.p.).
In data set [2] the test system is rats with hypoxia-induced pulmonary hypertension. Put plainly: Pulmonary arterial wall thickening assessed histologically (H&E stained lungs) in chronic hypoxia rats. To be noted: vs saline. From the text: (§1) All animal studies were approved by the Georgetown University Animal Care and Use Committee. Adult Sprague Dawley rats (200-250 g) were placed in specialized cages connected to the OxyCycler Oxygen Profile Controller (BioSpherix, Redfield, N.Y.) which precisely controls the oxygen and nitrogen contents. Animals were subjected to hypoxic gas (10% O2, balance N2). […] Normoxia control animals are subjected to the same conditions except that they were exposed to ambient O2. All animals were fed normal rat chow during treatment and used in accordance with institutional guidelines.
(§2) After 2-weeks of hypoxia or normoxia treatment, animals were injected intraperitoneally with saline or daunorubicin (20 mg/kg body weight; Sigma-Aldrich, St. Louise, Mo.). After injection, animals were placed back in hypoxia or normoxia condition for 3 days.
(§3) As an indication of the development of pulmonary hypertension, right ventricular hypertrophy was estimated by calculating RV/(LV+S), where RV is the mass of right ventricle, LV is the mass of left ventricle and S is the mass of septum. Right ventricular pressure was measured by inserting a 1.4 F Millar Catheter into the right ventricle at the base of apex using PowerLab 8/30 High Performance Data Acquisition System with Chart Pro in anesthetized and ventilated animals. Pulmonary arterial wall thickening was assessed histologically in hematoxylin and eosin stained lungs. Apoptosis of pulmonary vascular cells was monitored using terminal deoxynucleotidyl transferase dUTP nick end labeling (TUNEL) method.
(§4) Comparisons between the 2 groups were analyzed using a two-tailed Student's t test, and comparisons between 3 or more groups were analyzed by ANOVA with a Student-Newman-Keuls post-hoc test. p<0.05 was considered to be significant. […]
(§5) Comparisons between the 2 groups (2 mg/kg vs. control, or 5 mg/kg vs. control) were analyzed using a two-tailed Student's t test, and comparisons between 3 or more groups were analyzed by ANOVA with a Student-Newman-Keuls post-hoc test. p<0.05 was considered to be significant.

The test system of data set [3] is normal animals without pulmonary hypertension. Nature of the data set: Pulmonary vascular wall thickness (H&E stained lungs) in normoxia control rats.
Excerpt: as §1, §2, §3, §4, §5

For data set [4], the system named is pulmonary artery smooth muscle cells. Put plainly: Apoptosis of pulmonary vascular cells by TUNEL method in lungs of treated rats. As to conditions: daunorubicin 20 mg/kg i.p.
Excerpt: All animal studies were approved by the Georgetown University Animal Care and Use Committee. Adult Sprague Dawley rats (200-250 g) were placed in specialized cages connected to the OxyCycler Oxygen Profile Controller (BioSpherix, Redfield, N.Y.) which precisely controls the oxygen and nitrogen contents. Animals were subjected to hypoxic gas (10% O2, balance N2). […] Normoxia control animals are subjected to the same conditions except that they were exposed to ambient O2. All animals were fed normal rat chow during treatment and used in accordance with institutional guidelines. […]
as §3

1 compound from patent publication US20130131002A1, “COMPOSITIONS AND METHODS FOR TREATING PULMONARY HYPERTENSION” (Georgetown University, priority 2010, published 2013) can be followed below.

The structures appear in SMILES notation. “Also recorded” adds a separate entry of the source.

For the compound `COc1cccc2c1C(=O)c1c(O)c3c(c(O)c1C2=O)C[C@@](O)(C(C)=O)C[C@@H]3O[C@H]1C[C@H](N)[C@H](O)[C@H](C)O1` [daunorubicin], the “overall body weight of the animals” value in data set [1] is given as “not significantly affecting the overall body weight; also recorded: do not significantly impact the overall body weight”. In addition, the “hypoxia-induced pulmonary vascular wall thickening” value in data set [2] (daunorubicin 2 mg/kg i.p. after 2 weeks hypoxia) is “significantly reducing hypoxia-induced wall thickening; also recorded: significantly reduced hypoxia-induced wall thickening”; in data set [2] (daunorubicin 5 mg/kg i.p. after 2 weeks hypoxia), “significantly reducing hypoxia-induced wall thickening; also recorded: significantly reduced hypoxia-induced wall thickening”; in data set [2] (daunorubicin 20 mg/kg i.p. after 2 weeks 10% O2 hypoxia, then 3 more days hypoxia, P<0.05) it was “reduced thickening of pulmonary vascular walls; also recorded: significantly reduced this hypoxia-induced wall thickening”. The “thickness of the vascular walls in normal animals” value in data set [3] (daunorubicin 2 mg/kg i.p.), in data set [3] (daunorubicin 5 mg/kg i.p.) and in data set [3] (daunorubicin 20 mg/kg i.p.) was “did not affect the thickness of the vascular walls” in each case. Moreover, in data set [4] (hypoxia-exposed rats, saline controls showed none), the “TUNEL-positive (apoptotic) cells in pulmonary vascular walls” value was “induction of apoptosis in pulmonary vascular walls; also recorded: presented TUNEL-positive cells”. Also, the “selectivity of apoptosis induction: thickened vs normal pulmonary vessels” value in data set [4] (hypoxia rats (FIG. 3A) vs normoxia rats (FIG. 3B)) is listed as “can selectively kill pulmonary artery smooth muscle cells involved in thickened vascular walls”.
